These results are taken from US20250228832A1, “METHODS FOR TREATING DISORDERS AMELIORATED BY MUSCARINIC RECEPTOR ACTIVATION” (KARUNA THERAPEUTICS, INC., priority 2022, published 2025).

Each structure is given as a SMILES string. Like-named read-outs stand apart in the source and are kept apart here.

The assay has as its target T1, human M2 receptor (Homo sapiens, UniProt P08172).
T1 sequence (P08172 1-466): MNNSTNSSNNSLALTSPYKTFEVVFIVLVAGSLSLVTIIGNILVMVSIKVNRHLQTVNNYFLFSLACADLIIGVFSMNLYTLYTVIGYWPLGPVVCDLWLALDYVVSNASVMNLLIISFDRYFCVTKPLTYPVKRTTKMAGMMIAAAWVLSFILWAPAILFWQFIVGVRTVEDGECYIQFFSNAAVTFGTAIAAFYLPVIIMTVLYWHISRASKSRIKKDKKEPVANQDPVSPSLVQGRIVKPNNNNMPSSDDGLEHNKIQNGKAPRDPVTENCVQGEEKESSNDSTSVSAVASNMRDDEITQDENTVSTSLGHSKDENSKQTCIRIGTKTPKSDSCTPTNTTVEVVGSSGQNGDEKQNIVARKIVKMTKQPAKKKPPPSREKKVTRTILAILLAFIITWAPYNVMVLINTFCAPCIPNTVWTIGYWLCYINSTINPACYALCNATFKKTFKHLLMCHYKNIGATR
The assay can be described thus: SPA GTP (GTPgS) binding curve shift assay, M2. It counts as biochemical. How it is done: Membranes were prepared for GTPgS binding assays from CHO-K1 cells stably expressing human M2 or human M4 receptors. Cells were grown in 5-layer cell culture flasks. Cells were washed with 50 mL of PBS and then dissociated with 0.05% trypsin. Dissociated cells were then collected by centrifugation at 650×g for 8 min at 4° C. Pellets were rewashed in PBS by centrifugation and resuspended in 30 mL of 20 mM HEPES, 10 mM EDTA, pH 7.4. After sitting on ice for 30 min, membranes were collected by centrifugation at 50000×g for 15 min at 4° C., resuspended in 30 mL of 20 mM HEPES, 0.1 mM EDTA, pH 7.4, and collected again by centrifugation. Pellets were then washed twice by centrifugation in 30 mL of 20 mM HEPES, pH 7.4, and stored at −80° C. until the day of the assay. On the day of the assay, pellets were thawed on ice and resuspended in 1 mL of 20 mM HEPES, pH 7.4, 10 mM MgCl2, and 100 mM NaCl using Dounce homogenization.
According to Promega guidelines, membrane protein concentration was determined by BCA protein assay (Promega, Madison, WI).
On the day of the assay, serial dilutions of test PAM compounds were brought up in assay buffer (20 mM HEPES, 10 mM MgCl2; see Table 4 for NaCl concentrations) at four times the final assay concentration. […] of membrane homogenates (containing […] of membrane protein) were prepared in assay buffer supplemented with GDP at 4× final assay concentration (see Table 4 for GDP concentrations) and dispensed into 96 well polypropylene, U-bottom Greiner plates. Membrane plates were incubated for 10 min at room temperature with gentle shaking. Then, 25 μL of test compounds were added to assay plates. Plates were then incubated, with shaking, for an additional 10-15 min. Then, 25 μL of diluted agonists serially diluted in assay buffer at 4× final assay concentration was added to assay plates. Plates were then incubated, with shaking, for an additional 10-15 min. Next, […] of 0.4 nM ^35S-GTP (Perkin Elmer, Waltham, MA) in assay buffer was added to assay mixtures. The binding reaction was left on the shaker for 1 h at room temperature. Membranes in assay reactions were then transferred to GF/C filter plates (UniFilter, Perkin Elmer) and washed three times using FilterMate Harvester (Perkin Elmer) with cold assay buffer containing no GDP. Filter plates were then dried at 40° C. overnight, and […] of Beta Plate Scintillation liquid was added. Plates were top and bottom sealed before being read on the TopCount scintillation counter (Perkin Elmer, Waltham, MA).
Raw data for all assays was transmitted directly from plate readers into the Beacon database for processing. All assay plates contained positive and negative control wells for data normalization and scaling. […] All control wells contained DMSO at a final assay concentration that matched the test compound wells.
For GTPgS assays, the negative control wells were defined as 0% response. The highest response in a plate was scaled to 1, representing 100% response. Data from test compound wells was scaled to these controls and are reported as % control values. This was done to allow for subsequent GraphPad cooperativity analysis, setting the maximal response at no more than 1.

[1] abbreviates: M2, Emraclidine concentration 0 nM.
Where [2] appears, read: M2, Emraclidine concentration 41.2 nM, read-out: Emax.
[3] abbreviates: M2, Emraclidine concentration 123 nM, read-out: Emax.
Setting [4] is: M2, Emraclidine concentration 370 nM.
[5] abbreviates: M2, Emraclidine concentration 1110 nM, read-out: Emax.
Where [6] appears, read: M2, Emraclidine concentration 3330 nM, read-out: Emax.
Setting [7] is: M2, Emraclidine concentration […].
Setting [8] is: M2, MK-4710 concentration 41.2 nM, read-out: Emax.
Where [9] appears, read: M2, MK-4710 concentration 123 nM, read-out: Emax.
Setting [10] is: M2, MK-4710 concentration 370 nM.
[11] abbreviates: M2, MK-4710 concentration 1110 nM, read-out: Emax.
The mark [12] stands for this setting: M2, MK-4710 concentration 3330 nM, read-out: Emax.

As usually defined, the EC50 is the midpoint of the concentration-response curve. The Emax is the greatest response seen or fitted, relative to the assay's reference. Consider `CCCCCOc1nsnc1C1=CCCCN1C` [KTX-517, 3-(1-methyl-1,4,5,6-tetrahydropyridin-2-yl)-4-(pentyloxy)-1,2,5-thiadiazole], for which the EC50 runs as follows: under setting [1], 18.5 nM; (M2, MK-4710 concentration 0 nM) 14.3 nM; (M2, MK-4710 concentration 41.2 nM) 11.9 nM; (M2, MK-4710 concentration 123 nM) 14.8 nM; under setting [10], 13.1 nM; (M2, MK-4710 concentration 1110 nM) 15.8 nM. For the same compound, the EC50 is, setting by setting: (M2, MK-4710 concentration 3330 nM) 10.3 nM; (M2, MK-4710 concentration […]) 25.7 nM. Also, the Emax under setting [1] was 35.6%; the Emax under setting [2] was 57.9%; the Emax under setting [3] turned out to be 51.1%; the Emax under setting [5] is 65.9%; the Emax under setting [6] is 79.2%; the Emax (M2, MK-4710 concentration 0 nM) stood at 45.1%. Moreover, the Emax reads like this: under setting [8], 53.2%; under setting [9], 55.6%; under setting [11], 70.6%; under setting [12], 78.7%. For the same compound, the Emax at […] turned out to be 52.6% under setting [4]; 44.8% under setting [7]; 59.1% under setting [10]; 60.6% (M2, MK-4710 concentration […]). In addition, the “α (cooperativity, affinity shift)” value is, setting by setting: (M2, M4 PAM Emraclidine) 1.0; (M2, M4 PAM MK-4710) 1.0. Moreover, the “β (cooperativity, efficacy shift)” value runs as follows: (M2, M4 PAM Emraclidine) 18.1; (M2, M4 PAM MK-4710) 5.0. Besides, the “τ (agonist pharmacology)” value is listed as 0.1 (M2, M4 PAM Emraclidine) and 0.1 (M2, M4 PAM MK-4710).

In the case of `CC1OC2(CS1)CN1CCC2CC1` (stereo not shown) [cevimeline, Cevimeline, reference compound], the EC50 is, setting by setting: under setting [1], 2100 nM; (M2, MK-4710 concentration 0 nM) 2260 nM. The Emax by setting is: under setting [1], 34.0%; under setting [2], 57%; under setting [3], 51.8%; under setting [5], 51.4%; under setting [6], 69.6%; (M2, MK-4710 concentration 0 nM) 39.6%. Besides, the Emax runs as follows: under setting [8], 38.2%; under setting [9], 39%; under setting [11], 49.5%; under setting [12], 68.2%. Further, the Emax at […] by setting is: under setting [4], 48.6%; under setting [7], 43.8%; under setting [10], 39.3%; (M2, MK-4710 concentration […]) 42.1%. The “α (cooperativity, affinity shift)” value was 1.0 (M2, M4 PAM Emraclidine) and 1.0 (M2, M4 PAM MK-4710). Further, the “β (cooperativity, efficacy shift)” value by setting is: (M2, M4 PAM Emraclidine) 21.1; (M2, M4 PAM MK-4710) 53.4. Also, the “τ (agonist pharmacology)” value (M2, M4 PAM Emraclidine) was 0.0 and the “τ (agonist pharmacology)” value (M2, M4 PAM MK-4710) stood at 0.0.

For the compound `CCCCCCCOc1nsnc1C1=CCCCN1C` [KTX-593, 3-(heptyloxy)-4-(1-methyl-1,4,5,6-tetrahydropyridin-2-yl)-1,2,5-thiadiazole], the EC50 under setting [1] turned out to be 35.7 nM and the EC50 (M2, MK-4710 concentration 0 nM) amounted to 19.6 nM. The Emax was found to be 39.8% under setting [1]; 52.6% under setting [2]; 52.2% under setting [3]; 67.5% under setting [5]; 75.1% under setting [6]; 38.7% (M2, MK-4710 concentration 0 nM). The Emax was found to be 50.1% under setting [8], 50.2% under setting [9], 62.2% under setting [11] and 77.6% under setting [12]. The Emax at […] by setting is: under setting [4], 50.1%; under setting [7], 48.7%; under setting [10], 61.4%; (M2, MK-4710 concentration […]) 57%. For the same compound, the “α (cooperativity, affinity shift)” value was found to be 1.0 (M2, M4 PAM Emraclidine) and 1.0 (M2, M4 PAM MK-4710). Further, the “β (cooperativity, efficacy shift)” value is, setting by setting: (M2, M4 PAM Emraclidine) 1370.0; (M2, M4 PAM MK-4710) 10.3. Further, the “τ (agonist pharmacology)” value by setting is: (M2, M4 PAM Emraclidine) 1.6; (M2, M4 PAM MK-4710) 0.0.

`CCCCCCOc1nsnc1C1=CCCN(C)C1` [xanomeline, reference compound]: the maximal effect (Emax) was found to be 74.7%. Besides, the Emax under setting [1] is reported as 36.2%. Under setting [2], the maximal response (Emax) was 48.2%. Besides, the Emax under setting [3] was determined as 49.8%. The Emax at […] under setting [4] worked out at 41.5%. For the same compound, the Emax under setting [5] is 59.6%. Moreover, the Emax under setting [6] was 64.1%. The Emax at […] under setting [7] is 41.7%. For the same compound, the “τ (agonist pharmacology)” value (M2, M4 PAM Emraclidine) came to 0.0. Under “M2, M4 PAM MK-4710”, the “τ (agonist pharmacology)” value came to 0.0. For the same compound, the Emax (M2, MK-4710 concentration 0 nM) turned out to be 55.6%. The maximal effect (Emax) under setting [8] is 65.3%. The Emax at […] under setting [10] stood at 55.5%. In addition, under setting [11], the Emax was 74.1%. For the same compound, under setting [12], the Emax stood at 75.7%. The Emax at […] (M2, MK-4710 concentration […]) came to 60.1%.
